For assay [1], the system named is A549. Put plainly: Cytotoxicity against human A549 cells after 72 hrs by WST-8 assay. The format is functional, cell-based. The following applies: A549, 72 h. On the technique in general: Tetrazolium dyes change colour on reduction, which living cells bring about.
For assay [2], the system named is HeLa. As to the kind of experiment: Cytotoxicity against human HeLa cells assessed as growth inhibition at 1 ug/ml after 72 hrs by WST-8 assay. As to conditions: read-out: GI. Type of assay: functional.
Assay [3] is filed under the species Homo sapiens. Put plainly: Binding affinity to actin (unknown origin) by surface plasmon resonance analysis. A general note: In SPR one partner is held on a chip, and binding of the other changes the refractive index at the surface.
The nature of assay [4]: Cytotoxicity against human Caco2 cells after 72 hrs by WST-8 assay. Type of assay: functional, cell-based. The following applies: Caco-2, 72 h.
Assay [5] deals with P388. As to the kind of experiment: Antitumor activity against mouse P388 cells xenografted in CDF1 mouse at 0.5 mg/kg administered on day 1 and day 5 relative to control. Type of assay: functional.

SMILES strings stand for the structures. ≈ marks a conversion by molar mass, not a printed value. Calls of active or inactive are those of the source. The rule behind the calls is not given here.

Turning to `C=CC[C@H](C)[C@@H](O)C[C@@H]1C[C@H]2O[C@H](/C=C(C)/C=C/C[C@H]3C[C@@H]4O[C@@H](/C=C/CCCCC)C[C@@H]4O3)C[C@H]2O1`, the IC50 (usually the concentration that inhibits the measured activity by half) in assay [1] came to 0.6 µg/mL (≈ 1.17 µM); in assay [4] it was 0.1 µg/mL (≈ 0.194 µM). Moreover, in assay [2], the inhibition of growth at 1 µg/mL worked out at 20%. For the same compound, the result in assay [3] was Active. Besides, in assay [5], the T/C (in general, the result in the treated group divided by that in the control group, in per cent) is on record as 120%.

The record behind these values is ChEMBL document CHEMBL3393044, “Amphirionin-2, a novel linear polyketide with potent cytotoxic activity from a marine dinoflagellate Amphidinium species” (Bioorg Med Chem Lett, 2015).
